Test results published in ChEMBL document CHEMBL1201862, “PubChem BioAssay data set” (2004).
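Following 48 hours of exposure in 96-well plates, responses at five concentrations were used to interpolate endpoints linearly. GI50 marks 50% less growth.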 Activity calls are given as the source filed them. No stated cut-off is given here; in the data, active = GI50 up to about 1.1 µM and inactive = higher.

How the values were obtained:
Experiment in all cases: NCI-60 cell line screen, 48 h
CCRF-CEM = system: CCRF-CEM
SK-OV-3 = system: SK-OV-3
SF-268 = system: SF-268
M14 = system: M14
TK-10 = system: TK-10
Malme-3M = system: Malme-3M
SNB-19 = system: SNB-19
SN12C = system: SN12C
DMS-114 = system: DMS-114
UACC-257 = system: UACC-257
EKVX = system: EKVX
RXF 393 = system: RXF 393
CAKI-1 = system: CAKI-1
OVCAR-4 = system: OVCAR-4
SK-MEL-5 = system: SK-MEL-5
MOLT-4 = system: MOLT-4
SK-MEL-2 = system: SK-MEL-2
NCI-H226 = system: NCI-H226

Measured: GI50

c1ccc(CNn2nnc3ccccc32)cc1
inactive: CCRF-CEM > 100 µM | SK-OV-3 > 100 µM | SF-268 > 100 µM | M14 > 100 µM | TK-10 > 100 µM | Malme-3M > 100 µM | SNB-19 > 100 µM | SN12C > 100 µM | DMS-114 > 100 µM | UACC-257 > 100 µM | EKVX > 100 µM | RXF 393 > 100 µM | CAKI-1 > 100 µM | OVCAR-4 > 100 µM | SK-MEL-5 > 100 µM | MOLT-4 > 100 µM | SK-MEL-2 > 100 µM

O=c1c2c(c1=O)-c1ccccc1CN2
inactive: CCRF-CEM > 100 µM | SK-OV-3 > 100 µM | SF-268 > 100 µM | M14 > 100 µM | TK-10 > 100 µM | Malme-3M > 100 µM | SNB-19 > 100 µM | SN12C > 100 µM | DMS-114 > 100 µM | UACC-257 > 100 µM | EKVX > 100 µM | RXF 393 > 100 µM | CAKI-1 > 100 µM | OVCAR-4 > 100 µM | SK-MEL-5 > 100 µM | NCI-H226 > 100 µM | MOLT-4 > 100 µM | SK-MEL-2 > 100 µM

Cc1cn(C2OC(C)(CO)C(O)C2O)c(=O)[nH]c1=O (stereo not given)
inactive: CCRF-CEM > 100 µM | SK-OV-3 > 100 µM | SF-268 > 100 µM | M14 > 100 µM | TK-10 > 100 µM | Malme-3M > 100 µM | SNB-19 > 100 µM | SN12C > 100 µM | DMS-114 > 100 µM | RXF 393 > 100 µM | CAKI-1 > 100 µM | OVCAR-4 > 100 µM | SK-MEL-5 > 100 µM | MOLT-4 > 100 µM | SK-MEL-2 > 100 µM

O=P1(Oc2ccccc2)C(c2ccccc2)C(c2ccccc2)=NN1c1ccccc1 (stereo not given)
inactive: CCRF-CEM 30.4 µM | SK-OV-3 22.6 µM | SF-268 29.4 µM | M14 19.7 µM | TK-10 38.7 µM | Malme-3M 43.7 µM | SNB-19 34.9 µM | SN12C 25.9 µM | DMS-114 19.5 µM | UACC-257 27.9 µM | EKVX 37.3 µM | RXF 393 24.2 µM | CAKI-1 23.9 µM | OVCAR-4 31.6 µM | NCI-H226 23.5 µM | MOLT-4 22 µM | SK-MEL-2 15.9 µM

CC(=O)O[C@]12CCCC1C1(O)C(O)CCCC12 (stereo not given in full)
inactive: CCRF-CEM > 100 µM | SK-OV-3 > 100 µM | SF-268 > 100 µM | M14 > 100 µM | TK-10 > 100 µM | Malme-3M > 100 µM | SNB-19 > 100 µM | SN12C > 100 µM | DMS-114 > 100 µM | UACC-257 > 100 µM | EKVX > 100 µM | RXF 393 > 100 µM | OVCAR-4 > 100 µM | SK-MEL-5 > 100 µM | NCI-H226 > 100 µM | MOLT-4 > 100 µM | SK-MEL-2 > 100 µM

O=C1C2c3[nH]c4ccccc4c3C3CCCCC3C2C(=O)N1c1ccccc1 (stereo not given)
inactive: CCRF-CEM 85.1 µM | SK-OV-3 20.7 µM | SF-268 72.9 µM | M14 36.6 µM | TK-10 46.5 µM | Malme-3M > 100 µM | SNB-19 84.1 µM | SN12C > 100 µM | DMS-114 > 100 µM | EKVX > 100 µM | RXF 393 19.6 µM | OVCAR-4 45.1 µM | SK-MEL-5 > 100 µM | NCI-H226 > 100 µM | MOLT-4 64.7 µM

Cc1nc(-c2cccnc2)sc1C(=O)/C=C/c1ccc(Cl)cc1Cl
inactive: CCRF-CEM 47.5 µM | SK-OV-3 > 100 µM | SF-268 > 100 µM | TK-10 > 100 µM | Malme-3M > 100 µM | SN12C > 100 µM | DMS-114 84.3 µM | UACC-257 > 100 µM | EKVX > 100 µM | RXF 393 53.8 µM | CAKI-1 > 100 µM | SK-MEL-5 > 100 µM | NCI-H226 > 100 µM | MOLT-4 73.6 µM | SK-MEL-2 > 100 µM

O=C(OC1CCC(=C2SCCCS2)[C@H]1C1SCCCS1)c1ccccc1 (stereo not given in full)
inactive: CCRF-CEM > 100 µM | SK-OV-3 > 100 µM | M14 > 100 µM | TK-10 > 100 µM | Malme-3M 94.6 µM | SNB-19 > 100 µM | SN12C > 100 µM | DMS-114 89.5 µM | UACC-257 > 100 µM | EKVX > 100 µM | RXF 393 67.1 µM | OVCAR-4 84.5 µM | NCI-H226 30.5 µM | MOLT-4 > 100 µM | SK-MEL-2 > 100 µM

O=c1ncccn1C1OC(CO)C(O)C1O (stereo not given)
inactive: CCRF-CEM > 100 µM | SK-OV-3 > 100 µM | SF-268 > 100 µM | M14 > 100 µM | TK-10 > 100 µM | Malme-3M > 100 µM | SNB-19 91.8 µM | SN12C > 100 µM | DMS-114 > 100 µM | UACC-257 > 10 µM | EKVX > 100 µM | RXF 393 > 100 µM | CAKI-1 > 100 µM | OVCAR-4 > 100 µM | NCI-H226 > 100 µM | SK-MEL-2 > 100 µM
